The source of these data is patent publication US20190308988A1, “OPIOID RECEPTOR ANTAGONIST PRODRUGS” (Nirsum Laboratories, Inc., priority 2017, published 2019).

Molecules are shown by their SMILES. In brackets after ≈: the same amount, converted by molar mass.

Series [1] in a line: Polymorph screening of solid state drug substances (Table 23). As to conditions: stirred 50 °C 72 hours; for Dry method and appearance: dried solid. The format is physicochemical.
A short description of series [2]: Solubility determination in oil (Table 10). As to conditions: for solubility / solubility thermodynamic: 40 °C; for solubility / solubility thermodynamic / solubility at 24 h: thermodynamic from solid; for solubility thermodynamic: water, Equilibrium solubility: Water; for solubility at 24 h: 25 °C, Obs. Temp. 25 °C. Here is the method:
A known amount of test substance (˜40 mg) was weighed into the vial, 100 μL of oil was added and heated to 60° C. and then system was slurried to reach equilibrium. […] Extra oil was added into the vial once compound precipitated out and then the system was re-equilibrated at 1000 rpm at room temperature (25° C.). Final concentration was determined by HPLC method as described below in Table 6a and 6b.

[3] abbreviates: oil or lipid, Approximate Solubility in Excipient: Cottonseed oil, Heating Temp. 40 °C, Obs. Temp. 40 °C.
The mark [4] stands for this setting: oil or lipid, Approximate Solubility in Excipient: Sesame oil, Heating Temp. 40 °C, Obs. Temp. 40 °C.
The mark [5] stands for this setting: organic solvent or mixture, Approximate Solubility in Excipient: Ethanol, Heating Temp. 40 °C, Obs. Temp. 40 °C.
Setting [6] is: Heating Temp. 40 °C, Obs. Temp. 40 °C.
The mark [7] stands for this setting: oil or lipid, Approximate Solubility in Excipient: Cottonseed oil, Heating Temp. 60 °C, Obs. Temp. 40 °C.
Where [8] appears, read: oil or lipid, Approximate Solubility in Excipient: Sesame oil, Heating Temp. 60 °C, Obs. Temp. 40 °C.
The mark [9] stands for this setting: Heating Temp. 60 °C, Obs. Temp. 40 °C.
The mark [10] stands for this setting: oil or lipid, Approximate Solubility in Excipient: Cottonseed oil, Heating Temp. 60 °C.
Where [11] appears, read: oil or lipid, Approximate Solubility in Excipient: Sesame oil, Heating Temp. 60 °C.

Broadly, the solubility is the dissolved amount per volume that the medium holds. Usually thermodynamic solubility stands for solubility found after equilibrating the solid with the medium. Regarding `C=C1CC[C@@]2(O)C3Cc4ccc(OC(=O)OCCCCCCCCCCCCCCCC)c5c4[C@@]2(CCN3CC2CC2)[C@H]1O5` [Compound 19, (4aS,7aS,12bS)-3-(cyclopropylmethyl)-4a-hydroxy-7-methylene-2,3,4,4a,5,6,7,7a-octahydro-1H-4,12-methanobenzofuro[3,2-e]isoquinolin-9-yl hexadecyl carbonate], the “XRPD results (Dried)” value in series [1] (Acetone), in series [1] (EtOAc), in series [1] (Heptane), in series [1] (Isopropanol) and in series [1] (MTBE) was “Pattern A” in each case. Besides, the “Dry method and appearance” value in series [1] (Acetone), in series [1] (EtOAc), in series [1] (Heptane), in series [1] (Isopropanol) and in series [1] (MTBE) was “Evaporation/white powder” in each case. For the same compound, the solubility in series [2] (setting [3]) lay within 67 to 80 mg/mL (≈ 110 to 132 mM); in series [2] (setting [4]), 103 to 137 mg/mL (≈ 169 to 225 mM); in series [2] (setting [5]), 27 to 42 mg/mL (≈ 44.4 to 69.1 mM). This compound also came in with a solubility (thermodynamic) in series [2] (setting [6]) of 0.0468 mg/mL (≈ 0.077 mM).

In the case of `CCCCCCCCCCCCCCCCOC(=O)Oc1ccc2c3c1O[C@H]1C(=O)CC[C@@]4(O)C(C2)N(CC2CC2)CC[C@]314` [Compound 21, (4aS,7aR,12bS)-3-(cyclopropylmethyl)-4a-hydroxy-7-oxo-2,3,4,4a,5,6,7,7a-octahydro-1H-4,12-methanobenzofuro[3,2-e]isoquinolin-9-yl hexadecyl carbonate], the “XRPD results (Dried)” value in series [1] (Acetone), in series [1] (EtOAc), in series [1] (Heptane), in series [1] (Isopropanol) and in series [1] (MTBE) was “Pattern A” in each case. Besides, the “Dry method and appearance” value in series [1] (Acetone), in series [1] (EtOAc), in series [1] (Heptane), in series [1] (Isopropanol) and in series [1] (MTBE) was “Evaporation/white powder” each time. Moreover, the solubility is 101 to 135 mg/mL (≈ 166 to 221 mM) in series [2] (setting [7]); 101 to 134 mg/mL (≈ 166 to 221 mM) in series [2] (setting [8]); 50 to 100 mg/mL (≈ 82 to 164 mM) in series [2] (organic solvent or mixture, Approximate Solubility in Excipient: Ethanol, Heating Temp. 60 °C, Obs. Temp. 40 °C). This compound registered a thermodynamic solubility in series [2] (setting [9]) of 0.0006 mg/mL (≈ 0.000984 mM).

Take `C=C1CC[C@@]2(O)C3Cc4ccc(OC(=O)OCCCCCCCC)c5c4[C@@]2(CCN3CC2CC2)[C@H]1O5` [Compound 17, (4aS,7aS,12bS)-3-(cyclopropylmethyl)-4a-hydroxy-7-methylene-2,3,4,4a,5,6,7,7a-octahydro-1H-4,12-methanobenzofuro[3,2-e]isoquinolin-9-yl octyl carbonate]: the solubility at 24 h was more than 408 mg/mL in series [2] (setting [10]) and more than 487 mg/mL in series [2] (setting [11]). The solubility is more than 416 mg/mL in series [2] (setting [3]), more than 416 mg/mL in series [2] (setting [4]) and more than 209 mg/mL in series [2] (setting [5]). Also, the solubility (thermodynamic) in series [2] (setting [6]) turned out to be 0.0008 mg/mL (≈ 0.00161 mM).

Regarding `O=C(CCC1CCCC1)Oc1ccc2c3c1O[C@H]1C(=O)CC[C@@]4(O)C(C2)N(CC2CC2)CC[C@]314` [Compound 43, (4aS,7aR,12bS)-3-(cyclopropylmethyl)-4a-hydroxy-7-oxo-2,3,4,4a,5,6,7,7a-octahydro-1H-4,12-methanobenzofuro[3,2-e]isoquinolin-9-yl 3-cyclopentylpropanoate], the solubility in series [2] (setting [3]) is less than 50 mg/mL; in series [2] (setting [7]), 140 to 210 mg/mL (≈ 301 to 451 mM); in series [2] (setting [4]), less than 50 mg/mL; in series [2] (setting [8]), 133 to 199 mg/mL (≈ 286 to 427 mM); in series [2] (setting [5]), more than 257 mg/mL. In series [2] (setting [6]), this compound had a thermodynamic solubility of 0.05 mg/mL (≈ 0.107 mM). Moreover, in series [2] (setting [6]), the “Equilibrium solubility: Water” value is reported as 0.048 mg/mL.

With `CCCCCCCCCCCCCCCCCCCCCC(=O)Oc1ccc2c3c1O[C@H]1C(=O)CC[C@@]4(O)C(C2)N(CC2CC2)CC[C@]314` [Compound 51, (4aS,7aR,12bS)-3-(cyclopropylmethyl)-4a-hydroxy-7-oxo-2,3,4,4a,5,6,7,7a-octahydro-1H-4,12-methanobenzofuro[3,2-e]isoquinolin-9-yl docosanoate], the solubility at 24 h in series [2] (setting [10]) was less than 50 mg/mL; in series [2] (setting [11]) it was less than 46 mg/mL. Further, the thermodynamic solubility in series [2] (setting [6]) was less than 0.001 mg/mL.

Consider `C=C1CC[C@@]2(O)C3Cc4ccc(OC(=O)OCCCCCCCCCC)c5c4[C@@]2(CCN3CC2CC2)[C@H]1O5` [Compound 18, (4aS,7aS,12bS)-3-(cyclopropylmethyl)-4a-hydroxy-7-methylene-2,3,4,4a,5,6,7,7a-octahydro-1H-4,12-methanobenzofuro[3,2-e]isoquinolin-9-yl decyl carbonate], for which the solubility at 24 h in series [2] (setting [10]) is more than 400 mg/mL; in series [2] (setting [11]) it was more than 402 mg/mL. The solubility in series [2] (setting [3]) was more than 403 mg/mL; in series [2] (setting [4]), more than 403 mg/mL; in series [2] (setting [5]), more than 209 mg/mL. In addition, the thermodynamic solubility in series [2] (setting [6]) was less than 0.0002 mg/mL.

As to `CCCCCCCCCCCCCC(=O)Oc1ccc2c3c1O[C@H]1C(=O)CC[C@@]4(O)C(C2)N(CC2CC2)CC[C@]314` [Compound 57, (4aS,7aR,12bS)-3-(cyclopropylmethyl)-4a-hydroxy-7-oxo-2,3,4,4a,5,6,7,7a-octahydro-1H-4,12-methanobenzofuro[3,2-e]isoquinolin-9-yl tetradecanoate], the solubility at 24 h in series [2] (setting [10]) is more than 424 mg/mL; in series [2] (setting [11]) it was more than 417 mg/mL. Moreover, in series [2] (setting [6]), the thermodynamic solubility is less than 0.001 mg/mL.

Turning to `C=C1CC[C@@]2(O)[C@H]3Cc4ccc(O)c5c4[C@@]2(CCN3CC2CC2)[C@H]1O5` [61 (Nalmefene)], in series [2] (setting [9]), the “Approximate Solubility in Excipient: Cottonseed oil” value is less than 25.0 mg/mL, the “Approximate Solubility in Excipient: Ethanol” value was 102 to 137 mg/mL, the “Approximate Solubility in Excipient: Sesame oil” value is less than 25.5 mg/mL and the “Equilibrium solubility: Water” value is 0.025 mg/mL.

`CCCCCCCCCCCCCCC(=O)Oc1ccc2c3c1O[C@H]1C(=O)CC[C@@]4(O)C(C2)N(CC2CC2)CC[C@]314` [Compound 58, (4aS,7aR,12bS)-3-(cyclopropylmethyl)-4a-hydroxy-7-oxo-2,3,4,4a,5,6,7,7a-octahydro-1H-4,12-methanobenzofuro[3,2-e]isoquinolin-9-yl pentadecanoate]: the solubility at 24 h in series [2] (setting [10]) fell in the range of 102 to 204 mg/mL (≈ 180 to 360 mM); in series [2] (setting [11]) it was 99.4 to 199 mg/mL (≈ 176 to 351 mM). This compound came in with a solubility (thermodynamic) in series [2] (setting [6]) of 0.0014 mg/mL (≈ 0.00247 mM).

`CCCCCCCCCCCCCCCCCC(=O)Oc1ccc2c3c1O[C@H]1C(=O)CC[C@@]4(O)C(C2)N(CC2CC2)CC[C@]314` [Compound 54, (4aS,7aR,12bS)-3-(cyclopropylmethyl)-4a-hydroxy-7-oxo-2,3,4,4a,5,6,7,7a-octahydro-1H-4,12-methanobenzofuro[3,2-e]isoquinolin-9-yl stearate]: the solubility at 24 h in series [2] (setting [10]) is less than 51 mg/mL; in series [2] (setting [11]), less than 50 mg/mL. For the same compound, the solubility (thermodynamic) in series [2] (setting [6]) is less than 0.001 mg/mL.

As for `C=C1CC[C@@]2(O)C3Cc4ccc(OC(=O)OCCCCCCCCCCCCCCCCCC)c5c4[C@@]2(CCN3CC2CC2)[C@H]1O5` [Compound 33, (4aS,7aS,12bS)-3-(cyclopropylmethyl)-4a-hydroxy-7-methylene-2,3,4,4a,5,6,7,7a-octahydro-1H-4,12-methanobenzofuro[3,2-e]isoquinolin-9-yl octadecyl carbonate], the solubility at 24 h in series [2] (setting [10]) was less than 50 mg/mL; in series [2] (setting [11]), less than 51 mg/mL. The solubility (thermodynamic) in series [2] (setting [6]) was less than 0.001 mg/mL.

Take `C=C1CC[C@@]2(O)C3Cc4ccc(OC(=O)CCCCCCCCCCC/C=C\CCCCCCCC)c5c4[C@@]2(CCN3CC2CC2)[C@H]1O5` [Compound 13, (4aS,7aS,12bS)-3-(cyclopropylmethyl)-4a-hydroxy-7-methylene-2,3,4,4a,5,6,7,7a-octahydro-1H-4,12-methanobenzofuro[3,2-e]isoquinolin-9-yl (Z)-docos-13-enoate]: the results for the solubility at 24 h in series [2] (setting [10]) and in series [2] (setting [11]) were less than 50 mg/mL and 91 to 121 mg/mL (≈ 138 to 183 mM), respectively. Besides, the solubility in series [2] (setting [3]) was more than 381 mg/mL; in series [2] (setting [4]), more than 406 mg/mL; in series [2] (setting [5]), more than 214 mg/mL. The compound also gave a solubility (thermodynamic) in series [2] (setting [6]) of 0.002 mg/mL (≈ 0.00303 mM).

For the compound `CCCCCCCCCCOC(=O)Oc1ccc2c3c1O[C@H]1C(=O)CC[C@@]4(O)C(C2)N(CC2CC2)CC[C@]314` [Compound 10, (4aS,7aR,12bS)-3-(cyclopropylmethyl)-4a-hydroxy-7-oxo-2,3,4,4a,5,6,7,7a-octahydro-1H-4,12-methanobenzofuro[3,2-e]isoquinolin-9-yl decyl carbonate], the “XRPD results (Dried)” value in series [1] (Acetone), in series [1] (EtOAc), in series [1] (Heptane), in series [1] (Isopropanol) and in series [1] (MTBE) was “Pattern A” throughout. Also, the “Dry method and appearance” value is reported as “Evaporation/White wax” in series [1] (Acetone); “Evaporation/White wax” in series [1] (EtOAc); “Centrifugation/White wax” in series [1] (Heptane); “Evaporation/White wax” in series [1] (Isopropanol); “Evaporation/White wax” in series [1] (MTBE).
